In series [1] the test system is HeLa, HEK293 and COS cells. As to the kind of experiment: In vitro transfection, dose-response (luciferase reporter gene expression). It is filed as cell-based. As for the experimental part: FIG. 2: Dose-response curves of the in vitro transfection activity of the transfecting compound “KanaChol”. The expression of the reporter gene is indicated as a function of the charge ratio of the lipoplexes formed with the plasmid DNA. The HeLa, HEK293 and COS cells were transfected in accordance with the protocol described in Example 3 using lipoplexes prepared by mixing 5 μg of plasmid DNA expressing luciferase with the required amount of lipid. The data are expressed in relative light units (RLU) per mg of cellular proteins.
FIG. 3: Dose-response curves of the in vitro transfection activity of the KanaChol/DOPE (molar ratio 1:1) liposomes. The expression of the reporter gene is indicated as a function of the charge ratio of the lipoplexes formed with the plasmid DNA. The HeLa, HEK293 and COS cells were transfected in accordance with the protocol described in Example 4 using lipoplexes prepared by mixing 5 μg of plasmid DNA expressing luciferase with the required amount of lipid to form lipoplexes characterized by the charge ratio indicated. The data are expressed in relative light units (RLU) per mg of cellular proteins.
(§1) This study was carried out for lipoplexes comprising various amounts of KanaChol: 6.6, 13.2, 33, 66 or 132 nmol of KanaChol per 5 μg of DNA. In order to determine the theoretical mean charge ratio, it was considered that 1 μg of DNA represents 3 nmol of negative charges and that 3 amine groups of kanamycin are protonated at neutral pH during the formation of the lipoplexes and the transfection.
Preparation of the KanaChol/DNA lipoplexes: the KanaChol obtained according to Example 1 was dissolved in a 20 mM Hepes buffer solution (pH 7.4) at a positive charge concentration of 20 mM (considering that 3 amine functions are protonated at neutral pH). The lipoplexes were then prepared in accordance with the protocol described by Vigneron et al. (PNAS, 93, pp. 9682-9686, September. 1996) or by Patel et al. (Biochem. and Biophys. Res. Comm., 281, pp. 536-543, 2001).
Cell culture: HeLa cells (American Type Culture Collection (ATCC) Rockville, Md., USA) derived from a human cervical epithelium carcinoma were cultured in the presence of a medium of the MEM (minimum essential medium) type supplemented with 10% of fetal calf serum and antibiotics. The medium and the additives came from Gibco/BRL Life Technologies (Gaithersburg, Md., USA). The cells were cultured in flasks at 37° C. and at 5% of carbon dioxide in an incubator. […]
A 20 μl aliquot of supernatant of the centrifuged lysate was diluted in 100 μl of lysis buffer, to which 4 μl of 25 mM ATP (Sigma) and 20 μl of 25 mM luciferin (Sigma) were added. The samples were then placed in a Lumet LB9501 luminometer (Berthold, Nashua, N.H.) and the light emission integration value was measured for 10 seconds. […]

The subject of a further series is HeLa cells. Kind of series: Cytotoxicity by total extractable cellular proteins in the cell lysate. It is filed as cell-based. To be noted: 48 hours post-transfection, high charge ratio. As for the experimental part:
FIG. 4: Cytotoxicity of the transfecting compound KanaChol. HeLa cells were transfected in accordance with the protocol described in Example 3 using lipoplexes prepared by mixing 5 μg of plasmid DNA expressing luciferase with the amount of lipid required to form lipoplexes characterized by the charge ratio indicated. At 48 hours post-transfection, the cells were recovered and the toxicity was quantified using the total amount of cellular proteins in the cell lysate as an index of the number of cells, cell death producing a decrease in the extractable proteins. The total cellular proteins in the cell lysate is indicated as a function of the charge ratio of the lipoplexes. The data are expressed as concentration of extractable cellular proteins in the cell lysate (at fixed volume).
FIG. 5: Cytotoxicity of the KanaChol/DOPE (molar ratio 1:1) lipsomes. […] At 48 hours post-transfection, the cells were recovered and the toxicity was quantified using the total amount of cellular proteins in the cell lysate as an index of the number of cells, cell death producing a decrease in the extractable proteins. […] The data are expressed as concentration of extractable cellular proteins in the cell lysate (at fixed volume).
Thus, the cytotoxicity of the KanaChol was also measured at various charge ratios with the DNA. […]

Series [2] concerns various cell lines (16HBE, HepG2). Kind of series: In vitro transfection activity spectrum in other, less conventional cell lines (luciferase). The series is classed as cell-based. To be noted: charge ratios of between 3 and 5; KanaChol alone weaker in particular in 16HBE and HepG2. The method, then: FIG. 6: Expression of luciferase in various cell lines transfected either with the transfecting compound KanaChol or with the KanaChol/DOPE (1:1) liposomes. The various cell lines were transfected in accordance with the protocol described in Example 5 using either KanaChol/DNA lipoplexes or KanaChol/DOPE/DNA lipoplexes (with a positive charge ratio of 3-5) prepared by mixing 5 μg of plasmid DNA expressing luciferase and the required amount of lipid to obtain a positive charge ratio of 3-5. The data are expressed in relative light units (RLU) per mg of cellular proteins.
The in vitro transfection experiments carried out in Examples 4 and 5 were again carried out in a similar way, but with other less conventional cell lines (species and specificity of each cell line are indicated in FIG. 6). The KanaChol/DNA and KanaChol/DOPE/DNA formulations were used at charge ratios of between 3 and 5 (optimum values as defined in Examples 4 and 5).

Series [3] in a line: Electrophoretic gel shift studies (mean positive charge). It is filed as physicochemical. To be noted: complexed with nucleic acids. As for the experimental part:
as §1

Series [4] concerns HeLa; NIH 3T3; HEK298; COS; and 16HBE cell lines. As to the kind of experiment: In vitro transfection activity of NeoChol and NeoChol/DOPE (luciferase). To be noted: various charge ratios (1.3-26 NeoChol/DNA, 0.66-26 NeoChol/DOPE/DNA); 5 cell lines; NeoChol alone weaker particularly in 16HBE. The series is classed as cell-based. As for the experimental part:
FIG. 8: Transfecting activity in various cell lines (HEK293, NIH3T3, HeLa, COS, 16HBE), which were transfected with the transfecting compound NeoChol. The expression of the reporter gene can be indicated as a function of the various charge ratio of the lipoplexes and plasmid DNA. The various cell lines were transfected according to the protocol as described in Example 8, using NeoChol/DNA lipoplexes, which were prepared by mixing 5 μg of plasmid DNA expressing luciferase. The data can be expressed in relative light units (RLU) per mg of cellular proteins.
FIG. 9: Expression of luciferase in various cell lines (HEK293, NIH3T3, HeLa, COS, 16HBE), which were transfected with the transfecting compound NeoChol/DOPE (1:1). The expression of the reporter gene is indicated as a function of the various charge ratio of the lipoplexes and plasmid DNA. The various cell lines were transfected according to the protocol as described in Example 8, using NeoChol/DOPE/DNA lipoplexes, which were prepared by mixing 5 μg of plasmid DNA expressing luciferase. The data are expressed in relative light units (RLU) per mg of cellular proteins. […]

“Also recorded” adds a separate entry of the source.

On to `CC(C)CCCC(C)C1CCC2C3CC=C4CC(OC(=O)NCC5OC(OC6C(N)CC(N)C(OC7OC(CO)C(O)C(N)C7O)C6O)C(O)C(O)C5O)CCC4(C)C3CCC12C` (stereo not drawn) [KanaChol, 3β[6′-kanamycin-carbamoyl]cholesterol], for which the “cell line with highest transfection” value in series [1] (HeLa, HEK293 and COS compared) is “highest in the COS cell line”. Also, the “expression of the reporter gene luciferase (transfection)” value in series [1] (lipoplexes with 5 μg plasmid DNA expressing luciferase, HeLa, HEK293 and COS cells, data in RLU per mg of cellular proteins) is “high expression levels”. For the same molecule, in series [1] (lipoplexes with 5 μg plasmid DNA, 3 cell lines), the “theoretical mean charge ratio of optimum transfection efficiency” value is “approximately 5”. Also, the “charge ratio at which the transfection efficiency decreases” value in series [1] (very high charge ratios) is listed as over 7. In the series with HeLa cells, the “cytotoxicity (total extractable cellular proteins in the cell lysate)” value is “decrease in the total number of extractable cellular proteins”. The “transfection efficiency (luciferase expression)” value in series [2] is recorded as “less efficient overall”. Moreover, in series [3], the mean positive charge was 2-3.

In the case of `CC(C)CCCC(C)C1CCC2C3CC=C4CC(OC(=O)NCCSC[C@H]5O[C@@H](OC6C(O)[C@H](N)CC(N)[C@H]6O[C@H]6CC(CN)[C@@H](O)C(O)C6N)C(O)C5O[C@H]5OC(CN)[C@@H](O)C(O)C5N)CCC4(C)C3CCC12C` (some centres unmarked) [NeoChol, (5″-aminoethylsulfanyl) neomycin carbamoyl cholesterol], the “transfection efficacy (luciferase expression)” value in series [4] is reported as “efficient transfection; also recorded: somewhat less efficient”.
